Where two headings read alike, the source gives them in different places.
Key:
Assay type in all cases: cell-based, human
MYB mRNA = test: RT-qPCR splicing assay, MYB canonical junction (CJ) and alternative junction (AJ) mRNA; details: Homo sapiens; for AC50: increase in MYB alternative junction (AJ) mRNA, read-out: MYB AJ AC50
In short: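 A673 or K562 cells were treated for 24 h at 37 °C with an 11-point 3-fold compound dilution series (top final concentration 10 uM, DMSO ≤0.25%). After lysis, one-step TaqMan RT-qPCR quantified junction transcripts, normalized to PPIA for A673 or to GAPDH/GUSB for K562.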

MYB = test: HiBiT protein abundance assay, MYB HiBiT K562 cell line; details: 24 hours, top dose 10 μM
In short: (§1)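 Endogenous targets in K562 knock-in lines carried a HiBiT tag and were treated for 24 h at 37 °C with 10-point 3-fold dilutions (top 10 μM final, DMSO ≤0.25%). Abundance was read as lytic Nano-Glo HiBiT luminescence. IC50 came from a four-parameter logistic fit of normalized response.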

HTT = test: HiBiT protein abundance assay, HTT HiBiT K562 cell line; details: 24 hours, top dose 10 μM
In short: as §1

[1] = canonical junction qPCR panel, Table 5, read-out: MYB (decrease in CJ mRNA levels, IC50)
[2] = decrease in MYB canonical junction (CJ) mRNA, RT-qPCR, read-out: MYB CJ IC50
[3] = HiBiT K562 cell line, read-out: Effect on protein abundance, MYB (IC50 category)
[4] = HiBiT K562 cell line, read-out: Effect on protein abundance, HTT (IC50 category)
[5] = Table 5 panel, canonical junction qPCR, compound concentration having 50% response in CJ decrease, read-out: MYB IC50 (decrease in CJ mRNA levels)

| IC50 (MYB mRNA; [1]) [nM] | IC50 (MYB mRNA; [2]) [nM] | IC50 (MYB; [3]) [nM] | IC50 (HTT; [4]) [nM] | IC50 (MYB mRNA; [5]) [nM] | IC50 (MYB; HiBiT lytic detection, modified K562 cells, read-out: Effect on protein abundance, MYB (IC50)) [nM] | IC50 (HTT; HiBiT lytic detection, modified K562 cells, read-out: Effect on protein abundance, HTT (IC50)) [nM] | SMILES | AC50 (MYB mRNA; RT-qPCR) [nM] |
| --- | --- | --- | --- | --- | --- | --- | --- | --- |
| 100 to 1000 | 100 to 1000 | 100 to 1000 | 100 to 1000 |  |  |  | Cc1cn2cc(-c3cc(O)c4c(=O)n(C5CCNCC5)ccc4n3)cc(F)c2n1 [Compound 1448] | 100 to 1000 |
| 1000 to 10000 | 1000 to 10000 | 1000 to 10000 | > 10000 |  |  |  | Cc1c(O)c(-c2ncc3c(=O)n([C@@H]4C[C@H]5C[C@@H]4CN5)ccc3n2)cc2cn(C)nc12 (stereo in doubt) [Compound 1446, 6-[(1R,4R,5R)-2-azabicyclo[2.2.1]heptan-5-yl]-2-(6-hydroxy-2,7-dimethyl-indazol-5-yl)pyrido[4,3-d]pyrimidin-5-one] | 1000 to 10000 |
|  | 100 to 1000 | 100 to 1000 | 100 to 1000 | 100 to 1000 |  |  | Cc1cc(-c2cc3ccn(C4CCN(C5COC5)CC4)c(=O)c3cn2)cc2cn(C)nc12 [Compound 1209, 6-(2,7-dimethyl-2H-indazol-5-yl)-2-(1-(oxetan-3-yl)piperidin-4-yl)-2,7-naphthyridin-1(2H)-one-1] | 100 to 1000 |
|  | 1000 to 10000 | 100 to 1000 | 1000 to 10000 | 100 to 1000 |  |  | Cc1cc(-c2cc3ccn(C4CCN(C)CC4)c(=O)c3cn2)cc2cn(C)nc12 [Compound 1206, 6-(2,7-dimethyl-2H-indazol-5-yl)-2-(1-methylpiperidin-4-yl)-2,7-naphthyridin-1(2H)-one] | 100 to 1000 |
| > 10000 | 1000 to 10000 | > 10000 | > 10000 |  |  |  | Cc1cn2cc(-c3ccc4c(=O)n(C5CCNCC5)ccc4n3)nc(C)c2n1 [Compound 1238, 2-(2,8-dimethylimidazo[1,2-a]pyrazin-6-yl)-6-(piperidin-4-yl)-1,6-naphthyridin-5(6H)-one] | > 10000 |
|  | 100 to 1000 | 100 to 1000 | 1000 to 10000 | 100 to 1000 |  |  | Cn1cc2cc(-c3ccc4c(=O)n(C5CCNCC5)cnc4c3)ccc2n1 [Compound 182] | 100 to 1000 |
| 1000 to 10000 | 1000 to 10000 | > 10000 | > 10000 |  |  |  | Cc1cn2cc(-c3ccc4c(=O)n(C5CCNCC5)ccc4n3)c(O)cc2n1 [Compound 1240] | 1000 to 10000 |
| 100 to 1000 | 100 to 1000 | 100 to 1000 | 100 to 1000 |  |  |  | Cc1c(O)c(-c2ncc3c(=O)n(C4CCC(N)CC4)ccc3n2)cc2cn(C)nc12 (stereo not shown) [Compound 1300, 6-((1s,4s)-4-aminocyclohexyl)-2-(6-hydroxy-2,7-dimethyl-2H-indazol-5-yl)pyrido[4,3-d]pyrimidin-5(6H)-one] | 100 to 1000 |
| 100 to 1000 | 100 to 1000 | 100 to 1000 | 100 to 1000 |  |  |  | Cc1c(O)c(-c2ncc3c(=O)n(C4CCN(C)CC4)ccc3n2)cc2cn(C)nc12 [Compound 1304] | 100 to 1000 |
| 100 to 1000 | 100 to 1000 | 100 to 1000 | 100 to 1000 |  |  |  | Cc1c(O)c(-c2ncc3c(=O)n(C4C[C@H]5C[C@@H]4CN5)ccc3n2)cc2cn(C)nc12 (stereo in doubt) [Compound 1444, 6-[(1R,4R,5R)-2-azabicyclo[2.2.1]heptan-5-yl]-2-(6-hydroxy-2,7-dimethyl-indazol-5-yl)pyrido[4,3-d]pyrimidin-5-one] | 100 to 1000 |
|  | 100 to 1000 | 100 to 1000 | 100 to 1000 | 100 to 1000 |  |  | Cc1cn2cc(-c3ncc4c(=O)n(C5CCNC5)ccc4n3)cc(C#N)c2n1 (stereo not shown) [Compound 1221] | 100 to 1000 |
| 100 to 1000 | 100 to 1000 | 100 to 1000 | 1000 to 10000 |  |  |  | Cc1c(O)c(-c2ccc3c(=O)n([C@@H]4CCNC4)ccc3n2)cc2cn(C)nc12 [Compound 1450, 2-(6-hydroxy-2,7-dimethyl-indazol-5-yl)-6-[(3R)-pyrrolidin-3-yl]-1,6-naphthyridin-5-one] | 100 to 1000 |
| < 100 | < 100 | < 100 | < 100 |  |  |  | Cc1c(O)c(-c2ccc3c(=O)n(C4CCNCC4)cc(C)c3n2)cc2cn(C)nc12 [Compound 1284] | < 100 |
|  | 1000 to 10000 | 1000 to 10000 | > 10000 | 1000 to 10000 |  |  | Cc1cc(-c2cc3ccn(C4CCN(C5CC5)CC4)c(=O)c3cn2)cc2cn(C)nc12 [Compound 1208, 2-(1-cyclopropylpiperidin-4-yl)-6-(2,7-dimethyl-2H-indazol-5-yl)-2,7-naphthyridin-1(2H)-one] | 1000 to 10000 |
| 100 to 1000 | 100 to 1000 | 100 to 1000 | 1000 to 10000 |  |  |  | Cc1c(O)c(-c2ccc3c(=O)n([C@H]4CCNC4)ccc3n2)cc2cn(C)nc12 [Compound 1449, 2-(6-hydroxy-2,7-dimethyl-indazol-5-yl)-6-[(3S)-pyrrolidin-3-yl]-1,6-naphthyridin-5-one] | 100 to 1000 |
|  | 1000 to 10000 | 1000 to 10000 | > 10000 | 1000 to 10000 |  |  | Cc1cn2cc(-c3ncc4c(=O)n(C5CCNC5)ccc4n3)c(O)c(C)c2n1 (stereo not shown) [Compound 1227] | 1000 to 10000 |
|  | 1000 to 10000 | 100 to 1000 | > 10000 | 100 to 1000 |  |  | Cc1cn2cc(-c3ncc4c(=O)n(C5CCNC5)ccc4n3)cc(F)c2n1 (stereo not shown) [Compound 1215] | 100 to 1000 |
|  | 100 to 1000 | 100 to 1000 | 100 to 1000 | 100 to 1000 |  |  | Cc1cn2nc(-c3cc4ccn(C5CCNCC5)c(=O)c4cn3)cc(C)c2n1 [Compound 1198, 6-(2,8-dimethylimidazo[1,2-b]pyridazin-6-yl)-2-(piperidin-4-yl)-2,7-naphthyridin-1(2H)-one] | 100 to 1000 |
|  | 100 to 1000 | 1000 to 10000 | 1000 to 10000 | 1000 to 10000 |  |  | Cn1cc2cc(-c3cc4ccn(C5CCNCC5)c(=O)c4cn3)c(O)c(F)c2n1 [Compound 1199] | 1000 to 10000 |
| 100 to 1000 | 100 to 1000 | 100 to 1000 | 1000 to 10000 |  |  |  | Cc1c(O)c(-c2ncc3c(=O)n(C4CCNC4)ccc3n2)cc2cn(C)nc12 (stereo in doubt) [Compound 1440, (6S)-2-(6-hydroxy-2,7-dimethyl-indazol-5-yl)-6-pyrrolidin-3-yl-pyrido[4,3-d]pyrimidin-5-one] | 100 to 1000 |
|  | 1000 to 10000 | 1000 to 10000 | 1000 to 10000 | 1000 to 10000 |  |  | CCN1CCC(n2ccc3cc(-c4cc(C)c5nn(C)cc5c4)ncc3c2=O)CC1 [Compound 1207, 6-(2,7-dimethyl-2H-indazol-5-yl)-2-(1-ethylpiperidin-4-yl)-2,7-naphthyridin-1(2H)-one] | 1000 to 10000 |
|  | 100 to 1000 | 100 to 1000 | 1000 to 10000 | 100 to 1000 |  |  | Cn1cc2cc(-c3ncc4c(=O)n(C5CCNC5)ccc4n3)c(O)c(F)c2n1 (stereo not shown) [Compound 1223] | 100 to 1000 |
| 1000 to 10000 | 1000 to 10000 | 100 to 1000 | > 10000 |  |  |  | Cc1c(O)c(-c2ncc3c(=O)n(C4CNC4)ccc3n2)cc2cn(C)nc12 [Compound 1305, 6-(azetidin-3-yl)-2-(6-hydroxy-2,7-dimethyl-indazol-5-yl)pyrido[4,3-d]pyrimidin-5-one] | 1000 to 10000 |
|  | 100 to 1000 | 100 to 1000 | 100 to 1000 | 100 to 1000 |  |  | Cc1cn2cc(-c3ncc4c(=O)n([C@H]5CCNC5)ccc4n3)cc(F)c2n1 [Compound 1220] | 100 to 1000 |
| 1000 to 10000 | 1000 to 10000 | 100 to 1000 | 1000 to 10000 |  |  |  | Cc1c(O)c(-c2ncc3c(=O)n([C@H]4C[C@@H](N)C4)ccc3n2)cc2cn(C)nc12 [Compound 1431, 6-((1s,3s)-3-aminocyclobutyl)-2-(6-hydroxy-2,7-dimethyl-2H-indazol-5-yl)pyrido[4,3-d]pyrimidin-5(6H)-one] | 1000 to 10000 |
|  | 100 to 1000 | 100 to 1000 | 100 to 1000 | 100 to 1000 |  |  | Cc1cn2cc(-c3ncc4c(=O)n(C5CCNCC5)ccc4n3)c(O)c(C)c2n1 [Compound 1225] | 100 to 1000 |
| 100 to 1000 | 100 to 1000 | 1000 to 10000 | 1000 to 10000 |  |  |  | Cc1cn2cc(-c3cc(F)c4c(=O)n([C@@H]5CNC[C@H]5F)ccc4c3)cc(F)c2n1 [Compound 1456] | 100 to 1000 |
| 1000 to 10000 | 1000 to 10000 |  |  |  | 1000 to 10000 | 1000 to 10000 | CCN1CCC(n2ncc3nc(-c4cc5cn(C)nc5cc4O)ccc3c2=O)CC1 [Compound 1310] | 1000 to 10000 |

| SMILES | IC50 (MYB mRNA; [1]) [nM] | IC50 (MYB mRNA; [2]) [nM] | IC50 (MYB; [3]) [nM] | IC50 (HTT; [4]) [nM] | IC50 (MYB mRNA; [5]) [nM] | IC50 (MYB; HiBiT lytic detection, modified K562 cells, read-out: Effect on protein abundance, MYB (IC50)) [nM] | IC50 (HTT; HiBiT lytic detection, modified K562 cells, read-out: Effect on protein abundance, HTT (IC50)) [nM] | AC50 (MYB mRNA; RT-qPCR) [nM] |
| --- | --- | --- | --- | --- | --- | --- | --- | --- |
| Cc1c(O)c(-c2ncc3c(=O)n([C@@H]4C[C@H]5CC[C@@H](C4)N5)ccc3n2)cc2cn(C)nc12 [Compound 1429, 6-[(1S,5R)-8-azabicyclo[3.2.1]octan-3-yl]-2-(6-hydroxy-2,7-dimethyl-indazol-5-yl)pyrido[4,3-d]pyrimidin-5-one] | < 100 | < 100 | < 100 | 100 to 1000 |  |  |  | < 100 |

Reference: patent US20250332173A1, “COMPOUNDS AND METHODS FOR MODULATING NUCLEIC ACID SPLICING” (REMIX THERAPEUTICS INC., priority 2021, published 2025)
